In the NIST ThermoML archive (doi:10.1016/j.fluid.2016.08.014):

Tests used:
[1] = Liquid, Vibrating tube method
[2] = refractive index (Na D-line) (dimensionless); details: 298.15 K; 101.33 kPa; Liquid; Standard Abbe refractometry

CN(C)C=O [dimethylformamide]
[1]
Details	mass density [kg/m3]
293.15 K, 100 kPa	949
293.15 K, 2500 kPa	950
293.15 K, 5100 kPa	952
293.15 K, 10100 kPa	955
293.15 K, 15100 kPa	958
293.15 K, 20100 kPa	960
293.15 K, 25000 kPa	963
293.15 K, 30300 kPa	966
298.15 K, 101.33 kPa	943.978
303.15 K, 100 kPa	939
303.15 K, 2500 kPa	941
303.15 K, 5100 kPa	943
303.15 K, 10000 kPa	940
303.15 K, 15100 kPa	949
303.15 K, 20100 kPa	951
303.15 K, 25000 kPa	954
303.15 K, 30100 kPa	957
313.15 K, 100 kPa	930
313.15 K, 2600 kPa	931
313.15 K, 5100 kPa	933
313.15 K, 10000 kPa	936
313.15 K, 15100 kPa	939
313.15 K, 20100 kPa	942
313.15 K, 25000 kPa	945
313.15 K, 30100 kPa	948
323.15 K, 100 kPa	920
323.15 K, 2500 kPa	922
323.15 K, 5100 kPa	924
323.15 K, 10000 kPa	927
323.15 K, 15100 kPa	930
323.15 K, 20100 kPa	934
323.15 K, 25100 kPa	937
323.15 K, 30400 kPa	940
333.15 K, 200 kPa	910
333.15 K, 2600 kPa	912
333.15 K, 5000 kPa	914
333.15 K, 10200 kPa	918
333.15 K, 15000 kPa	921
333.15 K, 20300 kPa	925
333.15 K, 25100 kPa	928
333.15 K, 30200 kPa	931
343.15 K, 200 kPa	900
343.15 K, 2500 kPa	903
343.15 K, 5200 kPa	905
343.15 K, 10000 kPa	908
343.15 K, 15000 kPa	912
343.15 K, 20100 kPa	916
343.15 K, 25100 kPa	919
343.15 K, 30400 kPa	922
353.15 K, 200 kPa	890
353.15 K, 2500 kPa	893
353.15 K, 5100 kPa	895
353.15 K, 10100 kPa	899
353.15 K, 15000 kPa	903
353.15 K, 20100 kPa	907
353.15 K, 25100 kPa	910
353.15 K, 30200 kPa	914
363.15 K, 200 kPa	881
363.15 K, 2600 kPa	883
363.15 K, 5000 kPa	885
363.15 K, 10100 kPa	890
363.15 K, 15100 kPa	894
363.15 K, 20100 kPa	897
363.15 K, 25100 kPa	901
363.15 K, 30100 kPa	905
373.15 K, 100 kPa	871
373.15 K, 2600 kPa	873
373.15 K, 5000 kPa	876
373.15 K, 10100 kPa	880
373.15 K, 15300 kPa	885
373.15 K, 20100 kPa	888
373.15 K, 25100 kPa	892
373.15 K, 30100 kPa	896
383.15 K, 100 kPa	860
383.15 K, 2500 kPa	863
383.15 K, 5100 kPa	866
383.15 K, 10000 kPa	870
383.15 K, 15100 kPa	875
383.15 K, 20200 kPa	880
383.15 K, 25100 kPa	884
383.15 K, 30300 kPa	888
393.15 K, 100 kPa	851
393.15 K, 2600 kPa	853
393.15 K, 5200 kPa	856
393.15 K, 10000 kPa	861
393.15 K, 15000 kPa	866
393.15 K, 20100 kPa	870
393.15 K, 25100 kPa	875
393.15 K, 30400 kPa	879
403.15 K, 100 kPa	840
403.15 K, 2600 kPa	843
403.15 K, 5000 kPa	846
403.15 K, 10100 kPa	851
403.15 K, 15100 kPa	856
403.15 K, 20100 kPa	861
403.15 K, 25100 kPa	866
403.15 K, 30300 kPa	870
413.15 K, 200 kPa	830
413.15 K, 2500 kPa	833
413.15 K, 5000 kPa	836
413.15 K, 10200 kPa	842
413.15 K, 14900 kPa	847
413.15 K, 20000 kPa	852
413.15 K, 25200 kPa	857
413.15 K, 30000 kPa	861

Details	refractive index
[2]	1.42844
